Data as given in ChEMBL document CHEMBL1201862, “PubChem BioAssay data set” (2004).
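Growth conditions: 96-well plates. Treatment: test compound, 48 hours, 5 concentrations. Analysis: linear interpolation between bracketing concentrations; unreached endpoints set to highest concentration. At the GI50, growth is halved.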 Activity calls are given as the source filed them. No stated cut-off is given here; in the data, active = GI50 up to about 1.1 µM and inactive = higher.

Assays:
Experiment in all cases: NCI-60 cell line screen, 48 h
A549 = tested on: A549
ACHN = tested on: ACHN
CAKI-1 = tested on: CAKI-1
CCRF-CEM = tested on: CCRF-CEM
HT-29 = tested on: HT-29
KM12 = tested on: KM12
MOLT-4 = tested on: MOLT-4
Malme-3M = tested on: Malme-3M
NCI-H460 = tested on: NCI-H460
NCI-H522 = tested on: NCI-H522
OVCAR-3 = tested on: OVCAR-3
RPMI-8226 = tested on: RPMI-8226
RXF 393 = tested on: RXF 393
SF-268 = tested on: SF-268
SF-295 = tested on: SF-295
SK-MEL-2 = tested on: SK-MEL-2
SN12C = tested on: SN12C
TK-10 = tested on: TK-10
UACC-257 = tested on: UACC-257
UO-31 = tested on: UO-31

| Structure (SMILES) | GI50 (A549) | GI50 (ACHN) | GI50 (CAKI-1) | GI50 (CCRF-CEM) | GI50 (HT-29) | GI50 (KM12) | GI50 (MOLT-4) | GI50 (Malme-3M) | GI50 (NCI-H460) | GI50 (NCI-H522) | GI50 (OVCAR-3) | GI50 (RPMI-8226) | GI50 (RXF 393) | GI50 (SF-268) | GI50 (SF-295) | GI50 (SK-MEL-2) | GI50 (SN12C) | GI50 (TK-10) | GI50 (UACC-257) | GI50 (UO-31) |
| --- | --- | --- | --- | --- | --- | --- | --- | --- | --- | --- | --- | --- | --- | --- | --- | --- | --- | --- | --- | --- |
| CCc1cc2c(cc1CCCC(=O)O)CC1(Cc3ccc(C(=O)O)cc3C1)C2 (stereo not given) | > 100 µM (inactive) | > 100 µM (inactive) | > 100 µM (inactive) | > 100 µM (inactive) | > 100 µM (inactive) | > 100 µM (inactive) | > 100 µM (inactive) | > 100 µM (inactive) | > 100 µM (inactive) | > 100 µM (inactive) | > 100 µM (inactive) | > 100 µM (inactive) | > 100 µM (inactive) | > 100 µM (inactive) | > 100 µM (inactive) | > 100 µM (inactive) | > 100 µM (inactive) | > 100 µM (inactive) | > 100 µM (inactive) | > 100 µM (inactive) |
| COC1C(O)CC(OC2CC(Oc3cc4cc5c(c(O)c4c(O)c3C)C(=O)[C@@H](OC3CC(OC4CC(OC6CC(C)(O)C(OC(C)=O)C(C)O6)C(O)C(C)O4)C(O)C(C)O3)[C@H]([C@H](OC)C(=O)[C@@H](O)[C@@H](C)O)C5)OC(C)C2OC(C)=O)OC1C (stereo not given in full) [CHROMOMYCIN] | 0.00382 µM (active) | 4.71e-05 µM (active) | < 0.01 µM (active) | < 0.01 µM (active) | < 0.01 µM (active) | < 0.01 µM (active) | < 0.01 µM (active) | 0.00328 µM (active) | < 0.0133 µM (active) | 0.00366 µM (active) | < 0.01 µM (active) | < 0.01 µM (active) | 0.00311 µM (active) | 0.00357 µM (active) | 0.0139 µM (active) | 0.00361 µM (active) | 0.0101 µM (active) | 0.000119 µM (active) | < 0.01 µM (active) | 0.0614 µM (active) |
| Cc1ccccc1OCC(COC(=O)Nc1ccccc1)OC(=O)Nc1ccccc1 (stereo not given) | 32.7 µM (inactive) | > 100 µM (inactive) | 26.5 µM (inactive) | > 100 µM (inactive) | 31.6 µM (inactive) | 26.3 µM (inactive) | 3.49 µM (inactive) | 30.9 µM (inactive) | 20.2 µM (inactive) | 19.6 µM (inactive) | 87.7 µM (inactive) | 1.81 µM (inactive) | 7.24 µM (inactive) | 50.9 µM (inactive) | 51.3 µM (inactive) | 22 µM (inactive) | 26.8 µM (inactive) | > 100 µM (inactive) | > 100 µM (inactive) | 34.6 µM (inactive) |
| Cc1cc(C)c(S(=O)(=O)N(CCCN)OCCON(CCCN)S(=O)(=O)c2c(C)cc(C)cc2C)c(C)c1 | 3.31 µM (inactive) | 23.7 µM (inactive) | 26.2 µM (inactive) | 2.71 µM (inactive) | 10 µM (inactive) | 2.17 µM (inactive) | 2.64 µM (inactive) | 1.93 µM (inactive) | 2.67 µM (inactive) | 6.53 µM (inactive) | 1.79 µM (inactive) | 2.05 µM (inactive) | 4.67 µM (inactive) | 2.18 µM (inactive) | 20.2 µM (inactive) | 1.64 µM (inactive) | 7.87 µM (inactive) | 8 µM (inactive) | 3.39 µM (inactive) | 23.3 µM (inactive) |
| Nc1nnc2nc(CC(=O)/C=C/c3ccccc3)c(=O)[nH]n12 | > 100 µM (inactive) | > 100 µM (inactive) | > 100 µM (inactive) | > 100 µM (inactive) | > 100 µM (inactive) | > 100 µM (inactive) | > 100 µM (inactive) | > 100 µM (inactive) | > 100 µM (inactive) | > 100 µM (inactive) | > 100 µM (inactive) | > 100 µM (inactive) | > 100 µM (inactive) | > 100 µM (inactive) | > 100 µM (inactive) | > 100 µM (inactive) | > 100 µM (inactive) | > 100 µM (inactive) | > 100 µM (inactive) | > 100 µM (inactive) |
